Source: ChEMBL document CHEMBL1201862, “PubChem BioAssay data set” (2004)
The source made the active and inactive calls. No stated cut-off is given here; in the data, actives have a measured IC50 and inactives only a lower limit.

Molecular target: Envelope glycoprotein gp160 (Human immunodeficiency virus 1, UniProt Q6QLK5)
Experiment: inhibitors of HIV fusion peptide binding, primary screen, biochemical, uHTS, fluorescence dequenching (AID 1986)

Sequence of Envelope glycoprotein gp160 (Q6QLK5 whole entry, the tested form may be a part): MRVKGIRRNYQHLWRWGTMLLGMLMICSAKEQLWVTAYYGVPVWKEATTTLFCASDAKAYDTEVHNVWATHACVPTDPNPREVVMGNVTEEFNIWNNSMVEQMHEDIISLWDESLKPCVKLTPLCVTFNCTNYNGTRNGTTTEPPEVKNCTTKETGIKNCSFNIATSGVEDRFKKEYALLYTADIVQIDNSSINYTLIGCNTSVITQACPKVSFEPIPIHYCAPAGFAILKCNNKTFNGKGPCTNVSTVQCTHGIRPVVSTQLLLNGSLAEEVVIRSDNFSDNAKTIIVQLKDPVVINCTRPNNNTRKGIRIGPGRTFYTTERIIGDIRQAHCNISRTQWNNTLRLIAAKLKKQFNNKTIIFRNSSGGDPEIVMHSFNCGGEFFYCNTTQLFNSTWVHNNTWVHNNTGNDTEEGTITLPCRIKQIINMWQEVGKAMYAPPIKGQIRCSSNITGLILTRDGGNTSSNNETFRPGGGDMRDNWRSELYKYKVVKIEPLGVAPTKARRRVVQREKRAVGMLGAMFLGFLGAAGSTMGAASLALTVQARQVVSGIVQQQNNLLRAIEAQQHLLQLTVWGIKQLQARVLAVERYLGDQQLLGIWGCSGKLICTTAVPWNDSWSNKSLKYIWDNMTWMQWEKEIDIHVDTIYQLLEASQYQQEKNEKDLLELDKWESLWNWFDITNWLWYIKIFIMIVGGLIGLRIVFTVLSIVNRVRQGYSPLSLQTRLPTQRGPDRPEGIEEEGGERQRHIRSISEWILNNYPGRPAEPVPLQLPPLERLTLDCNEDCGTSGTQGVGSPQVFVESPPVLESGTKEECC

Row | Structure (SMILES) | IC50
1 | O=C(O)c1ccc(-c2ccc(/C=C3\NC(=O)N(Cc4ccc(Cl)cc4)C3=O)o2)cc1Cl | 10.7 µM (active)
2 | Cc1cc(N2C(=O)C(O)=C(C(=O)c3ccc(C)o3)C2c2cccc(Oc3ccccc3)c2)no1 (stereo not given) | 24.1 µM (active)
3 | Cc1cc(N2C(=O)C(O)=C(C(=O)c3cc4ccccc4o3)C2c2ccc(Cl)cc2)no1 (stereo not given) | 15.9 µM (active)
4 | CCOC(=O)c1sc(N2C(=O)C(O)=C(C(=O)c3ccc(C)o3)C2c2cccc([N+](=O)[O-])c2)nc1C (stereo not given) | 17.6 µM (active)
5 | COc1cccc(C2C3=C(N=c4s/c(=C\c5ccc(OCC(=O)O)cc5)c(=O)n42)c2ccccc2CC3)c1 (stereo not given) | 18.6 µM (active)
